Tests used:
Assay type in all cases: cell-based
[1] = tested on: MDA-MB-231 (breast cancer); test: Antiproliferative activity (CCK-8 cell viability), MDA-MB-231; conditions: Homo sapiens, 72 h, read-out: Antiproliferative activity in cancerous cells, MDA-MB-231 (inhibition of cell growth); for inhibition at 3.3 µM: Compound concentration: 3.3 μM; for inhibition at 10 µM: Compound concentration: 10 μM
Outline: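 In this CCK-8 viability assay, MDA-MB-231 cells maintained in Dulbecco's modified Eagle's medium containing 10% fetal bovine serum were placed in 96-well plates (2,000-5,000 cells/well) and treated with compound for 72 h at 37° C. A 4 h incubation with 10 μL CCK-8 followed, plates were read at 450 nm, and viability was expressed against DMSO vehicle wells across replicates.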

HepG2 (liver cancer) = test: Antiproliferative activity (CCK-8 cell viability), HepG2; conditions: Homo sapiens, 72 h, read-out: Antiproliferative activity in cancerous cells, HepG2 (inhibition of cell growth); for inhibition at 3.3 µM: Compound concentration: 3.3 μM; for inhibition at 10 µM: Compound concentration: 10 μM
Outline: (§1)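 Cells were seeded at 2,000-5,000/well (HeLa in MEM, HepG2 and SW480 in DMEM, A549 in F-12K, all with 10% FBS) and treated with compound at 3.3, 10 or 30 μM for 72 h at 37° C. CCK-8 was added for 4 h, absorbance was read at 450 nm, and viability was expressed relative to DMSO-treated wells.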

SW480 (colon cancer) = test: Antiproliferative activity (CCK-8 cell viability), SW480; conditions: Homo sapiens, 72 h, read-out: Antiproliferative activity in cancerous cells, SW480 (inhibition of cell growth); for inhibition at 3.3 µM: Compound concentration: 3.3 μM; for inhibition at 10 µM: Compound concentration: 10 μM
Outline: as §1

[2] = tested on: B16F10 (malignant melanoma); test: Antiproliferative activity (CCK-8 cell viability), B16F10; conditions: Mus musculus, 72 h, read-out: Antiproliferative activity in cancerous cells, B16F10 (inhibition of cell growth); for inhibition at 3.3 µM: B16-F10, Compound concentration: 3.3 μM; for inhibition at 10 µM: B16-F10, Compound concentration: 10 μM
Outline: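 Attached B16F10 cells in 96-well plates were incubated with compound at 37° C for 72 h, followed by 10 μL CCK-8 reagent per well and a further 4 h incubation. A multi-well plate reader measured absorbance at 450 nm. Percent viability across replicates was calculated against DMSO vehicle-treated cells.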

[3] = tested on: A431 (epidermoid carcinoma); test: Antiproliferative activity (CCK-8 cell viability), A431; conditions: Homo sapiens, 72 h, read-out: Antiproliferative activity in cancerous cells, A431 (inhibition of cell growth); for inhibition at 3.3 µM: A-431, Compound concentration: 3.3 μM; for inhibition at 10 µM: A-431, Compound concentration: 10 μM
Outline: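 Cell viability of compound-treated A431 cells was measured with a Cell Counting Kit-8. Each well received 10 μL of CCK-8 after 72 h of compound exposure, followed by 4 h incubation at 37° C. and a 450 nm plate-reader measurement. Percent viability was calculated relative to DMSO controls across replicates.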

[4] = tested on: A549 (lung adenocarcinoma); test: Antiproliferative activity (CCK-8 cell viability), A549; conditions: Homo sapiens, 72 h, read-out: Antiproliferative activity in cancerous cells, A549 (inhibition of cell growth); for inhibition at 3.3 µM: Compound concentration: 3.3 μM; for inhibition at 10 µM: Compound concentration: 10 μM
Outline: as §1

HeLa (cervical cancer) = test: Antiproliferative activity (CCK-8 cell viability), HeLa; conditions: Homo sapiens, 72 h, read-out: Antiproliferative activity in cancerous cells, HELA (inhibition of cell growth); for inhibition at 3.3 µM: Compound concentration: 3.3 μM; for inhibition at 10 µM: Compound concentration: 10 μM
Outline: as §1

Row | SMILES | inhibition at 3.3 µM [1] [%] | inhibition at 10 µM [1] [%] | inhibition at 3.3 µM (HepG2 (liver cancer)) [%] | inhibition at 10 µM (HepG2 (liver cancer)) [%] | inhibition at 3.3 µM (SW480 (colon cancer)) [%] | inhibition at 10 µM (SW480 (colon cancer)) [%] | inhibition at 3.3 µM [2] [%] | inhibition at 10 µM [2] [%] | inhibition at 3.3 µM [3] [%] | inhibition at 10 µM [3] [%] | inhibition at 3.3 µM [4] [%] | inhibition at 10 µM [4] [%] | inhibition at 3.3 µM (HeLa (cervical cancer)) [%] | inhibition at 10 µM (HeLa (cervical cancer)) [%]
1 | CC1=C(CC(=O)O)c2cc(Cl)ccc2/C1=C\c1ccc(Oc2ccc(F)c(F)c2)cc1 [C76, (Z)-2-(5-Chloro-1-(4-(3,4-difluorophenoxy)benzylidene)-2-methyl-1H-inden-3-yl)acetic acid] | < 30 | ≥ 50 | < 30 | ≥ 50 | < 30 | ≥ 50 | 30 to 50 | ≥ 50 | ≥ 50 | ≥ 50 | 30 to 50 | ≥ 50 | 30 to 50 | ≥ 50
2 | CC1=C(CC(=O)O)c2cc(Br)ccc2/C1=C\c1ccc(Oc2ccc(Cl)cc2)cc1 [C77, (Z)-2-(5-Bromo-1-(4-(4-chlorophenoxy)benzylidene)-2-methyl-1H-inden-3-yl)acetic acid] | ≥ 50 | ≥ 50 | 30 to 50 | ≥ 50 | < 30 | 30 to 50 | ≥ 50 | ≥ 50 | < 30 | < 30 | < 30 | ≥ 50 | ≥ 50 | ≥ 50
3 | CC1=C(CC(=O)O)c2cc(F)ccc2/C1=C\c1ccc(Oc2ccc(Cl)cc2)cc1F [C78, (Z)-2-(1-(4-(4-Chlorophenoxy)-2-fluorobenzylidene)-5-fluoro-2-methyl-1H-inden-3-yl)acetic acid] | ≥ 50 | ≥ 50 | < 30 | ≥ 50 | < 30 | 30 to 50 | < 30 | ≥ 50 | < 30 | ≥ 50 | ≥ 50 | ≥ 50 | < 30 | ≥ 50
4 | CC1=C(CC(=O)O)c2cc(F)ccc2/C1=C\c1ccc(Oc2ccc(Cl)cc2)cc1Oc1ccc(Cl)cc1 [C79, (Z)-2-(1-(2,4-Bis(4-chlorophenoxy)benzylidene)-5-fluoro-2-methyl-1H-inden-3-yl)acetic acid] | ≥ 50 | ≥ 50 | ≥ 50 | ≥ 50 | ≥ 50 | ≥ 50 | ≥ 50 | ≥ 50 | ≥ 50 | ≥ 50 | ≥ 50 | ≥ 50 | ≥ 50 | ≥ 50
5 | CC1=C(CC(=O)O)c2cc(F)ccc2/C1=C\c1ccc(Oc2ccc(Cl)cc2)cc1O [C80, (Z)-2-(1-(4-(4-Chlorophenoxy)-2-hydroxybenzylidene)-5-fluoro-2-methyl-1H-inden-3-yl)acetic acid] | ≥ 50 | ≥ 50 | < 30 | ≥ 50 | < 30 | ≥ 50 | 30 to 50 | ≥ 50 | 30 to 50 | ≥ 50 | 30 to 50 | ≥ 50 | < 30 | ≥ 50

From patent publication US20260184663A1, “INDENE COMPOUNDS, PHARMACEUTICAL COMPOSITIONS THEREOF, AND THEIR THERAPEUTIC APPLICATIONS” (NucMito Pharmaceuticals co. Ltd., priority 2022, published 2026)
